According to ChEMBL document CHEMBL1201862, “PubChem BioAssay data set” (2004):
Activity calls are given as the source filed them.

Legend:
[1] = target: G-protein coupled receptor 55 (Homo sapiens, UniProt Q9Y2T6); assay: selective activators of receptor GPR55 – imaging, U2OS cells, beta-arrestin-GFP redistribution, primary screen (AID 1961); format: functional
[2] = non-specific 3'UTR reporter inhibition in Clone20-Shn3RL – cell-based, Renilla luciferase, cherry-picked, counter-screen for Shn3 inhibitor project, dose response (AID 624133); format: functional
CAAX prenyl protease 2 = target: T1, CAAX prenyl protease 2 (Saccharomyces cerevisiae S288c, UniProt Q03530); format: biochemical
T1 sequence (Q03530 whole entry): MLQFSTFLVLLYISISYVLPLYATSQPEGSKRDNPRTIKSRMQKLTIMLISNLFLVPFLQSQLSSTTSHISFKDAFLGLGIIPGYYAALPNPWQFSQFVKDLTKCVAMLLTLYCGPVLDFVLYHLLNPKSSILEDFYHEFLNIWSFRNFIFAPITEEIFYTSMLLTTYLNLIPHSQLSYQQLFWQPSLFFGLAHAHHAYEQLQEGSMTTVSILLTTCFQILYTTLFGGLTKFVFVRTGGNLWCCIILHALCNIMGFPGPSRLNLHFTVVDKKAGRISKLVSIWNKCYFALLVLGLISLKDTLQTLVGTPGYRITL

[3] = reduction of Shn3 3'UTR-driven luciferase in osteoblasts – cell-based, Clone20 osteoblasts, firefly luciferase, cherry-picked, dose response (AID 624132); format: functional;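 further: firefly luciferase luminescence from reporter carrying the Shn3 3'UTR in osteoblasts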
INS1 [4] = assay: INS-1E survival protection against cytokine death – cell-based, luminescence, retest, dose response (AID 449756); format: functional; details: Rattus norvegicus;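 further: cell death triggered by IL-1 beta plus TNF-alpha plus IFN-gamma mixture; protective hits raise ATP signal compared with cytokine alone wells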
CAAX prenyl protease 1 = CAAX prenyl protease 1 (Saccharomyces cerevisiae S288c, UniProt P47154); assay: yeast CAAX protease Ste24 inhibition – biochemical, S. cerevisiae, plate reader, cherry-pick, dose response (AID 488815)
[5] = loss of viability in HepG2 cells – cell-based, CellTiter-Glo, cherry-picked, cytotoxicity control for Shn3 inhibitor project, dose response (AID 624134); format: functional
[6] = target: T2, Serine/threonine-protein phosphatase (Candida dubliniensis (strain CD36 / CBS 7987 / NCPF 3949 / NRRLY-17841) (Yeast), UniProt B9W6M3); assay: Fluorescence Cell-Based Secondary Assay to Identify Inhibitors of Calcineurin. [Related pubchem assays (depositor defined):AID1979, AID2007]; format: functional
T2 sequence (B9W6M3 whole entry): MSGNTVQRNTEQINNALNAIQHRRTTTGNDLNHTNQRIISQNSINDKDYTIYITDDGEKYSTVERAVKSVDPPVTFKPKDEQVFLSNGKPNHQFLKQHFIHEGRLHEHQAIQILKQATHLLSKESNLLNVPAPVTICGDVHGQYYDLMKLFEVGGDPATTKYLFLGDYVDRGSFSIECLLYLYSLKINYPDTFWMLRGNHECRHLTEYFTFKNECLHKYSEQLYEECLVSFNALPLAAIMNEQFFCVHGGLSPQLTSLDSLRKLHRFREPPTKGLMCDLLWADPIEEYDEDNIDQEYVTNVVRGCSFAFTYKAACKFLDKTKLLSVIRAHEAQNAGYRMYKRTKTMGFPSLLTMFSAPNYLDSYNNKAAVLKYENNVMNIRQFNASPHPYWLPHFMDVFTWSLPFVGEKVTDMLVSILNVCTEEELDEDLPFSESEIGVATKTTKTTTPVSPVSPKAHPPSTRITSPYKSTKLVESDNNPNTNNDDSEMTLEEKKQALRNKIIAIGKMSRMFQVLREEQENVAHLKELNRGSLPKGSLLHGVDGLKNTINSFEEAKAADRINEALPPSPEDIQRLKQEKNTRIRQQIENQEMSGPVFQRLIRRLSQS

[7] = target: ATP-dependent molecular chaperone HSP82 (Candida albicans (strain WO-1) (Yeast), UniProt C4YTQ8); assay: steroid-induced GRE reporter decrease in yeast – S. cerevisiae, luminescence, Hsp90 inhibitor project, dose response (AID 2400); format: functional, cell-based;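 further: beta-galactosidase luminescence from glucocorticoid response element reporter as proxy for Hsp90 function; inhibitor potency where signal loss means Hsp90 inhibition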
[8] = target: T2, Serine/threonine-protein phosphatase; assay: blockers of CaCl2-induced CDRE-lacZ signaling – S. cerevisiae, luminescence, secondary, dose response (AID 2388); format: functional, cell-based;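 further: yeast reporter cells carrying a calcineurin-responsive lacZ construct stimulated with calcium chloride; luminescent beta-galactosidase reporter signal in whole cells rather than isolated phosphatase activity; potency for inhibition where a drop in reporter signal means calcineurin blockade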
[9] = NIH-3T3 fibroblast cytotoxicity, dose response, cytotoxicity control, cell-based, fluorescence, Alamar Blue, secondary assay (AID 2327); format: functional;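 further: NIH-3T3 mouse fibroblasts cultured with fluconazole at 8 µg/mL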
[10] = fluconazole-exposed Candida albicans growth modulators – fluorescence, retest, confirmation (AID 2467); format: functional, cell-based
[11] = Luminescence Cell-Based Dose Retest to Confirm Inhibitors of Cancer Stem Cells. [Related pubchem assays (depositor defined):AID2717, AID2721]; format: functional; details: Homo sapiens
[12] = NIH3T3 cell viability loss – ATP luminescence, mouse fibroblasts, counter-screen, dose response (AID 2010); format: functional, cell-based;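 further: cells exposed to compound for about 90 hours before reading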
cells [13] = format: functional, cell-based
[14] = Trypanosoma cruzi growth suppression in host cells – NIH3T3 host cells, beta-gal luminescence, confirmation (AID 2044); format: functional, cell-based;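 further: intracellular parasites grown in NIH/3T3 mouse fibroblasts as host cells; luminescent beta-galactosidase reporter signal from transgenic T. cruzi replicating inside host cells; inhibitors lower the luminescence signal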
A-375 = assay: MITF: Counter assay: A375 proliferation Measured in Cell-Based System Using Plate Reader - 2084-03_Inhibitor_Dose_DryPowder_Activity. [Related pubchem assays (depositor defined):AID488944]; format: functional; details: Homo sapiens
[15] = target: T3, Microphthalmia-associated transcription factor (Homo sapiens, UniProt O75030); assay: reducers of TRPM1 reporter luminescence, concentration series – cell-based, SK-MEL-5, cherry-picked, set 3, MITF inhibitor project, dose response (AID 493073); format: functional;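 further: SK-MEL-5 melanoma cells with luciferase driven by the MITF target TRPM1 promoter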
T3 sequence (O75030 whole entry): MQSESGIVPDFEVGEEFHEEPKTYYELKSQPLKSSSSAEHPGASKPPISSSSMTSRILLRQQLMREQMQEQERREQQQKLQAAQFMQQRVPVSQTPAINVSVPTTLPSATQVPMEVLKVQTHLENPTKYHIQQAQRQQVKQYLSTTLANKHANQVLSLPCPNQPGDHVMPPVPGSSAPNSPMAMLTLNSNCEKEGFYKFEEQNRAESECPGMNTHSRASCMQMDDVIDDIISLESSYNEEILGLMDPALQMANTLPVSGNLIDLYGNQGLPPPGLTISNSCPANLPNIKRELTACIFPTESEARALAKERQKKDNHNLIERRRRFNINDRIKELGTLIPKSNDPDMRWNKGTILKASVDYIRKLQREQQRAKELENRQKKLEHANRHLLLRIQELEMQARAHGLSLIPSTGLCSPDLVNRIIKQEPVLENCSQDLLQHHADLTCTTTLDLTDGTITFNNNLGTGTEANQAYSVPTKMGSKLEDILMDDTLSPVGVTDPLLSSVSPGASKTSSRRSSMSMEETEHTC

cells [16] = format: functional, cell-based; remark: listed apart in the source
INS1 [17] = assay: INS-1E mitochondrial potential loss inhibitors – cell-based, JC-1 fluorescence, dry powder, set 2, dose response (AID 488867); format: functional; details: Rattus norvegicus
INS1 [18] = assay: INS-1E mitochondrial potential rescue under cytokines – cell-based, JC-1 fluorescence ratio, dry powder, dose response (AID 488931); format: functional; details: Rattus norvegicus

Chain of ATP-dependent molecular chaperone HSP82 (C4YTQ8 whole entry): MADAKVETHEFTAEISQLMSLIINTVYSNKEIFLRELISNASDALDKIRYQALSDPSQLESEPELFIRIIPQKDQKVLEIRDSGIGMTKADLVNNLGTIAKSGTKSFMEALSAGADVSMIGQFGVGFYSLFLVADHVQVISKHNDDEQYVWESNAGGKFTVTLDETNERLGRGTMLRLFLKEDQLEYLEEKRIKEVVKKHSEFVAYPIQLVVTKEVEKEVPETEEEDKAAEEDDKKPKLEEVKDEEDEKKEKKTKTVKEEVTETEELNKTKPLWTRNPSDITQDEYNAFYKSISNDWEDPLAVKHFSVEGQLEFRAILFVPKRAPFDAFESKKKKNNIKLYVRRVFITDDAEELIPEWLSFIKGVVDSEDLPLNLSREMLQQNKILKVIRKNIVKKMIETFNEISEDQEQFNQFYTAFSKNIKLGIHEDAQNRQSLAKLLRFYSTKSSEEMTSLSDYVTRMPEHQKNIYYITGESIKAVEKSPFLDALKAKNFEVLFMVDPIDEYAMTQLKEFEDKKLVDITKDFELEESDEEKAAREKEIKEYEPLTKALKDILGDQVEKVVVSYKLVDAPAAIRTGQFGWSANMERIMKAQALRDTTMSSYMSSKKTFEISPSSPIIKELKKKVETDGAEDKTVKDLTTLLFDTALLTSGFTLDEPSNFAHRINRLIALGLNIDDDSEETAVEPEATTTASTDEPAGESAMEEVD
Chain of CAAX prenyl protease 1 (P47154 whole entry): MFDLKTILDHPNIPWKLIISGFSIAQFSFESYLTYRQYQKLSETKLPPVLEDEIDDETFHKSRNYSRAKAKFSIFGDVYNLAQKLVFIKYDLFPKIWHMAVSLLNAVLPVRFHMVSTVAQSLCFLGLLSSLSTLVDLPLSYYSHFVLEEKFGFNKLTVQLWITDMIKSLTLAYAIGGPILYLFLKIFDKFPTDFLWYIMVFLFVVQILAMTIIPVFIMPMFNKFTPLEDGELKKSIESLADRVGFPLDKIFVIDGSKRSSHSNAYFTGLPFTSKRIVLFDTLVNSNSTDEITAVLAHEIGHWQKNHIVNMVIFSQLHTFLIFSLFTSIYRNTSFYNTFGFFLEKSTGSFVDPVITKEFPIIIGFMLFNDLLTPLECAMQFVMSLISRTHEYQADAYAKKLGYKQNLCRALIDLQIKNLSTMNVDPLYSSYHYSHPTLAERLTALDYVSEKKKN
Chain of G-protein coupled receptor 55 (Q9Y2T6 whole entry): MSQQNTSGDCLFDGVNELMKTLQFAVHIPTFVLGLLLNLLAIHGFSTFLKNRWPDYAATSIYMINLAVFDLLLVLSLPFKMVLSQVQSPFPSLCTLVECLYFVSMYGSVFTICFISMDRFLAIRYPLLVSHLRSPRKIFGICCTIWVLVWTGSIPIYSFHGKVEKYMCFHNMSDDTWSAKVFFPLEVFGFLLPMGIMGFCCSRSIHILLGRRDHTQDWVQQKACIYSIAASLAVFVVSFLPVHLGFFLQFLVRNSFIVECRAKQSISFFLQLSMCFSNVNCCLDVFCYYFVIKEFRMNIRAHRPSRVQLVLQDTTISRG

With `COc1ccc(C2/C=C\CN(C(=O)c3ccc(C)cc3)[C@H](Cc3ccccc3)C(=O)N2Cc2ccc(F)cc2)cc1` (some centres not stated) the EC50 [1] was > 32 µM (inactive), the AC50 [2] was 18.1 µM (active) and the AC50 (CAAX prenyl protease 2) was 35.1 µM (active). For the same compound, the AC50 [3] was 0.772 µM (active), the AC50 (INS1 [4]) was 7.14 µM (active) and the AC50 (CAAX prenyl protease 1) was 37.3 µM (active). For the same compound, the AC50 [5] was > 70 µM (inactive).
With `Cc1oc2c(F)c(F)c(F)c(F)c2c1S(=O)(=O)Nc1cccc(C(F)(F)F)c1` the EC50 [6] was 9.76 µM (active), the EC50 [7] was 4.6 µM (active) and the EC50 [8] was 18.1 µM (active). For the same compound, the EC50 [9] was > 160 µM (inconclusive), the EC50 [10] was 0.859 µM (active) and the AC50 [11] was 2.3 µM (active).
With `COc1cnc(-c2ccccn2)nc1NC(C)C` the EC50 [12] was 3.77 µM (active), the AC50 [2] was 3.16 µM (active) and the AC50 [3] was 2.81 µM (active). For the same compound, the AC50 (INS1 [4]) was 7.93 µM (active), the EC50 (cells [13]) was > 350 µM (not active) and the EC50 [14] was 2.05 µM (active). The EC50 [9] was 23.1 µM (active), the EC50 [10] was > 38 µM (not active) and the AC50 (A-375) was 37.1 µM (active). For the same compound, the AC50 [5] was 5.96 µM (active), the AC50 [15] was 12.4 µM (active) and the EC50 (cells [16]) was 19.7 µM (active).
With `C[C@@H]1CN([C@@H](C)CO)C(=O)c2cccc(NC(=O)Nc3cccc4ccccc34)c2O[C@H]1CN(C)S(=O)(=O)c1ccc2c(n1)N(C)CCO2` the AC50 (INS1 [17]) was 69.4 µM (active) and the AC50 (INS1 [18]) was 61.1 µM (active).
